Entries after “also recorded” stand apart in the source; their conditions may differ.

This is an account of results in patent publication US20250134853A1, “COMPOUNDS AND METHODS FOR USING GALLOYLATED POLYPHENOLS TO TREAT DISEASES MEDIATED BY THIOL ISOMERASES” (Beth Israel Deaconess Medical Center, Inc., priority 2023, published 2025).

Experiment [1] concerns the target T1, PDI (Homo sapiens, UniProt P07237).
T1 construct: FLAG; made in house; host or cells: Escherichia coli Origami B (DE3)
The experiment is described as follows: Insulin reductase assay. To be noted: 20 μM. The experiment is classed as biochemical.
Experimental: Insulin reductase assay. Insulin was prepared by mixing 12.5 mg/mL insulin in 50 mM Tris-HCl, pH 8. 1 M HCl was carefully added to drop the pH to 2.0 for solution clarification. Once the solution clarifies, 1 M NaOH was added to rapidly adjust the pH back to 8.0. The solution was then adjusted to 1.5 mM (10 mg/mL) with 50 mM Tris-HCl, aliquoted and stored in −20° C. until use. 2× concentrations of thiol isomerases were prepared (final concentrations as indicated in each assay) and mixed with 1.2 mM DTT (final 0.3 mM) and 0.4 mM insulin (final 0.1 mM) using a thiol isomerase activity assay buffer. Insulin precipitation from enzyme-mediated reduction was assayed in 96-well clear bottom plates at 650 nm absorption.

Experiment [2] has as its target T2, SARS-CoV-2 M^pro (Severe acute respiratory syndrome coronavirus 2, UniProt P0DTD1). To be noted: cited from earlier work.
In experiment [3] the test system is PDI domain fragments (a, a′, ab, abb′, b′xa′). The experiment is described as follows: Di-eosin-GSSG assay on isolated PDI domain fragments. The experiment is classed as biochemical. Particulars: 20 μM.
Experimental: (§1) Di-eosin-GSSG disulfide reductase assay. The probe di-eosin glutathione disulfide, di-eosin-GSSG, was prepared by incubating 100 μM of GSSG with 1 mM of eosin isothiocyanate in 100 mM potassium phosphate containing 2 mM EDTA (pH 7.4), at 25° C. overnight in the dark. The mixture was passed down a PD-10 column and different fractions were collected. A fold change of fluorescence (Ex: 520 nm, Em: 550 nm) was calculated using samples subjected to either vehicle or 20 mM of DTT. Any fraction with a fold change >5 was kept. Using a stock of 10 mM eosin isothiocyanate, a standard curve was generated and concentration of samples were determined accordingly. Di-eosin-GSSG cleavage of purified thiol isomerases and PDI domains was monitored in a 96-well fluorescence plate format. PDI, CGXC-PDI variants, ERp5, ERp57, ERp46 and PDI domains were assayed at 50 nM in the presence or absence of the indicated small molecules. The assay included a thiol isomerase assay buffer (39 mM KH2PO4, 61 mM K2HPO4, 2 mM EDTA, 5 M DTT, pH 7.4) and 150 nM of the di-eosin-GSSG probe. The increase in fluorescence was determined for 60 min by excitation at 520 nm and emission at 550 nm in a Synergy Biotek 4. The reduction of 150 nM di-eosin-GSSG by 5 μM DTT in the presence or absence of mentioned small molecule or proteins served as a negative control.
The next experiment relates to SARS-CoV-2. To be noted: cited from earlier work.
In experiment [4] the target is T2, SARS-CoV-2 M^pro. To be noted: literature values (Table 2); read-out: SARS-CoV-2 M^pro inhibition; cited from earlier work.
For experiment [5], the target named is T1, PDI. The experiment is described as follows: Di-eosin-GSSG disulfide reductase assay, PDI. The experiment is classed as biochemical. Particulars: for IC50: Table 1, IC50 curves on PDI activity (FIGS. 13B-E, 17A-E), read-out: Relative PDI inhibition.
Experimental: as §1
In another experiment the test system is platelets. Particulars: cited from earlier work.
Experiment [6] concerns recombinant PDI, ERp57, and ERp5. In words: Di-eosin-GSSG assay, thiol isomerases at 20 μM compound. The experiment is classed as biochemical. To be noted: 15 minute incubation.

T1 sequence (P07237 18-508): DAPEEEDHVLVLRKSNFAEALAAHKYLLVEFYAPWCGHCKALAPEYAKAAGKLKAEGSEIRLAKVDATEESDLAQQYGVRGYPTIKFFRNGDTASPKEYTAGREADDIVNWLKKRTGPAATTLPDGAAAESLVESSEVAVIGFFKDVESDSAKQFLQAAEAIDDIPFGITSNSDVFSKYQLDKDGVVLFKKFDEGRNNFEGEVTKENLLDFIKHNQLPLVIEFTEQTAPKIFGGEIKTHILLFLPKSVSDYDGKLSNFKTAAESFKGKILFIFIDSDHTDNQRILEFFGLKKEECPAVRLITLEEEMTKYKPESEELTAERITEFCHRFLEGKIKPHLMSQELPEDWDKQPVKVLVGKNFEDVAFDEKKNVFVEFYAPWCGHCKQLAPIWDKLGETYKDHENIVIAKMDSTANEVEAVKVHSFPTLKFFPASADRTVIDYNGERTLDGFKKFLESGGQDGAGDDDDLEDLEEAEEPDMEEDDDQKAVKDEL

Consider “1,2,3,4,6-pentagalloylglucose [Pentagalloyl-glucose]”, for which the “inhibition of the ability of PDI to reduce insulin” value at PDI [1] was “inhibited the ability of PDI to reduce insulin”. Also, the “Modeling shows gallic acid interaction with His41 or Glu166” value at SARS-CoV-2 M^pro [2] was “occludes His41;; also recorded: reacts with Glu166”. Further, in experiment [3], the “inhibition of isolated a′ domain cleavage of di-eosin-GSSG” value is reported as “inhibited the ability of isolated a′ domain to cleave di-eosin-GSSG”. In addition, the IC50 was 15 µM in the experiment with SARS-CoV-2 (Vero Cells, read-out: Inhibition of viral replication IC50); 25 µM on SARS-CoV-2 M^pro [4]; 2.9 µM at PDI [5]. The “inhibition of SARS-CoV-2 / infection (in words)” value with SARS-CoV-2 is given as “inhibits SARS-CoV-2 viral infection in culture”. Further, in the experiment with platelets, the antiplatelet activities result is recorded as “have antiplatelet activities”. In addition, the “inhibition of thiol isomerases (PDI, ERp57, ERp5) in words” value in experiment [6] is reported as “potently inhibited all thiol isomerases tested”.

In the case of `O=C(OC[C@H]1O[C@@H](OC(=O)c2cc(O)c(O)c(OC(=O)c3cc(O)c(O)c(O)c3)c2)[C@H](OC(=O)c2cc(O)c(O)c(OC(=O)c3cc(O)c(O)c(O)c3)c2)[C@@H](OC(=O)c2cc(O)c(O)c(OC(=O)c3cc(O)c(O)c(O)c3)c2)[C@@H]1OC(=O)c1cc(O)c(O)c(OC(=O)c2cc(O)c(O)c(O)c2)c1)c1cc(O)c(O)c(OC(=O)c2cc(O)c(O)c(O)c2)c1` [Tannic acid], the “inhibition of the ability of PDI to reduce insulin” value on PDI [1] is recorded as “inhibited the ability of PDI to reduce insulin”. At SARS-CoV-2 M^pro [2], the “Modeling shows gallic acid interaction with His41 or Glu166” value is “His41; Glu166” and the “hydrogen bonding with M^pro in published molecular dynamic simulations” value is on record as “hydrogen bonding of TA with M^pro Cys145”. Moreover, the “inhibition of isolated a′ domain cleavage of di-eosin-GSSG” value in experiment [3] was “inhibited the ability of isolated a′ domain to cleave di-eosin-GSSG”. In the experiment on SARS-CoV-2, the “Inhibition of viral replication (cell system in which shown)” value was 293T-hACE2 and NIC-H460; the “inhibition of SARS-CoV-2 / infection (in words)” value was “blocks SARS-CoV-2 virus infection in 293T cells expressing hACE2”. Also, on PDI [5], the “inhibition of PDI (in words)” value was “inhibit PDI” and the IC50 was determined as 8.5 µM. Moreover, the antiplatelet activities result with platelets is listed as “have antiplatelet activities”. Also, the “inhibition of thiol isomerases (PDI, ERp57, ERp5) in words” value in experiment [6] is given as “potently inhibited all thiol isomerases tested”.
